Data: ChEMBL document CHEMBL4385620, “Inhibition of polypeptide N-acetyl-α-galactosaminyltransferases is an underlying mechanism of dietary polyphenols preventing colorectal tumorigenesis” (Bioorg Med Chem, 2019)
Activity calls are given as the source filed them. The rule behind the calls is not given here.

Tests used:
HT-29 [1] = test: Effect on ppGalNAcT3 expression level in human HT-29 cells at 40 uM incubated for 48 hrs by Q-PCR analysis; assay type: ADME, cell-based; conditions: ht-29, 48 h
HT-29 [2] = test: Effect on ppGalNAcT1 expression level in human HT-29 cells at 40 uM incubated for 48 hrs by Q-PCR analysis; assay type: ADME, cell-based; conditions: ht-29, 48 h
HCT-116 [3] = test: Antimigratory activity in human HCT116 cells at 40 uM incubated for 48 hrs by crystal violet staining based method; assay type: functional, cell-based
[4] = target: Polypeptide N-acetylgalactosaminyltransferase 14 (Homo sapiens, UniProt Q96FL9); test: Inhibition of catalytic activity of ppGalNAcT14 (unknown origin) using EA2 peptide as substrate incubated for 30 mins by HPLC-based enzyme assay
Polypeptide N-acetylgalactosaminyltransferase 14, sequence (Q96FL9 whole entry): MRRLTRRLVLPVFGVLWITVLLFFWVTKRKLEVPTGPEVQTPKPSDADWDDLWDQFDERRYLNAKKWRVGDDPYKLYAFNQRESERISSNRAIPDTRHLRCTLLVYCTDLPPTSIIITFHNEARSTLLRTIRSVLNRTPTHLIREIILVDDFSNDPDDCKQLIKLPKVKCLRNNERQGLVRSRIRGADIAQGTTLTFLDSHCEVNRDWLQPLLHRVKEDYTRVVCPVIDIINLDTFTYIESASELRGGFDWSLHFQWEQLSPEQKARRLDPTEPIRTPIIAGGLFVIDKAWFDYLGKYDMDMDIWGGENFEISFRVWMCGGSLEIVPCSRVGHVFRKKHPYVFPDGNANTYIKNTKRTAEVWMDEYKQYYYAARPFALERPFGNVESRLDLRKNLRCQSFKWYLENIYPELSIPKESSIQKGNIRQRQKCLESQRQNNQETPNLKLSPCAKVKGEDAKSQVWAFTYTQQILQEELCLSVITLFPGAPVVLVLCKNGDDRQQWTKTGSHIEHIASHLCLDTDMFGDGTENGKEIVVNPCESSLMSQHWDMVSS

HCT-116 [5] = test: Cytotoxicity against human HCT116 cells at 40 uM incubated for 48 hrs by CCK-8 assay; assay type: cell-based; conditions: hct-116, 48 h
[6] = target: T1, Polypeptide N-acetylgalactosaminyltransferase 2 (Homo sapiens, UniProt Q10471); test: Inhibition of ppGalNAcT2 in human Jurkat cells assessed as reduction in O-GalNAc glycosylation by measuring VVA lectin expression at 40 uM incubated for 48 hrs by Western blot analysis; assay type: cell-based
T1 sequence (Q10471 whole entry): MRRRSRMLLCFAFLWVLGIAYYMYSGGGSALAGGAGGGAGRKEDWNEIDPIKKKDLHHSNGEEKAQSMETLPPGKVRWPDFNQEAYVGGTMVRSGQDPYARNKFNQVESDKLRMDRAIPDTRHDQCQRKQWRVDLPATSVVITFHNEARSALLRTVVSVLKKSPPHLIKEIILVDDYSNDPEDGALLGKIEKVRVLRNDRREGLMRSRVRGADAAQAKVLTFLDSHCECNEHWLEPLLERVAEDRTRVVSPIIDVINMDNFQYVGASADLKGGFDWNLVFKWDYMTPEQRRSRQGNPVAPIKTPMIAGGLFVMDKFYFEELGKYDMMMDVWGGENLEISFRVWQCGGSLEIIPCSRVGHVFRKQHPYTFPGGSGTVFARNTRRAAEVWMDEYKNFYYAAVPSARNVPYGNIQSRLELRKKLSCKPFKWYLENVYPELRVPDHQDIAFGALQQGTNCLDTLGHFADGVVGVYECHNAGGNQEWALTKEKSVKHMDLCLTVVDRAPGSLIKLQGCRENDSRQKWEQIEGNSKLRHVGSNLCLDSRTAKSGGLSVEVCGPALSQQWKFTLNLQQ

HT-29 [7] = test: Effect on ppGalNAcT10 expression level in human HT-29 cells at 40 uM incubated for 48 hrs by Q-PCR analysis; assay type: ADME, cell-based; conditions: ht-29, 48 h
HT-29 [8] = test: Reduction in PDPN protein expression in human HT-29 cells at 40 uM for 48 hrs by Western blot analysis; assay type: functional, cell-based
[9] = target: Polypeptide N-acetylgalactosaminyltransferase 2 (Homo sapiens, UniProt Q10471, W282A); test: Inhibition of catalytic activity of human recombinant FLAG-tagged ppGalNAcT2 W282A mutant expressed in HEK293 cells using EA2 peptide as substrate by HPLC-based enzyme assay
Polypeptide N-acetylgalactosaminyltransferase 2 (Homo sapiens, UniProt Q10471, W282A), sequence (Q10471 whole entry W282A): as the sequence (Q10471 whole entry) above, with W282A counted along it

HT-29 [10] = test: Effect on ppGalNAcT13 expression level in human HT-29 cells at 40 uM incubated for 48 hrs by Q-PCR analysis; assay type: ADME, cell-based; conditions: ht-29, 48 h
HT-29 [11] = test: Effect on PDPN expression level in human HT-29 cells at 40 uM incubated for 48 hrs by Q-PCR analysis; assay type: ADME, cell-based; conditions: ht-29, 48 h
HT-29 [12] = test: Effect on ppGalNAcT14 expression level in human HT-29 cells at 40 uM incubated for 48 hrs by Q-PCR analysis; assay type: ADME, cell-based; conditions: ht-29, 48 h
HT-29 [13] = test: Effect on ppGalNAcT6 expression level in human HT-29 cells at 40 uM incubated for 48 hrs by Q-PCR analysis; assay type: ADME, cell-based; conditions: ht-29, 48 h
[14] = target: T1, Polypeptide N-acetylgalactosaminyltransferase 2; test: Binding affinity of human recombinant FLAG-tagged ppGalNAcT2 expressed in HEK293 cells assessed as dissociation rate by SPR analysis
HT-29 [15] = test: Effect on ppGalNAcT5 expression level in human HT-29 cells at 40 uM incubated for 48 hrs by Q-PCR analysis; assay type: ADME, cell-based; conditions: ht-29, 48 h
[16] = target: T1, Polypeptide N-acetylgalactosaminyltransferase 2; test: Inhibition of ppGalNAcT2 in human HT-29 cells assessed as reduction in PDPN O-GalNAc glycosylation by at 40 uM incubated for 48 hrs by jacalin lectin based immunoprecipitation analysis; assay type: cell-based
HT-29 [17] = test: Effect on ppGalNAcT7 expression level in human HT-29 cells at 40 uM incubated for 48 hrs by Q-PCR analysis; assay type: ADME, cell-based; conditions: ht-29, 48 h
Cricetulus griseus [18] = organism: Cricetulus griseus; test: Inhibition of ppGalNAcT2 in Chinese hamster ldlD cell lysates assessed as reduction in O-GalNAc glycosylation by measuring glycans VVA lectin expression at 0.5 to 4 uM incubated for 30 mins by Western blot analysis; assay type: subcellular; conditions: Lysate
RKO [19] = test: Cytotoxicity against human RKO cells at 40 uM incubated for 48 hrs by CCK-8 assay; assay type: cell-based
[20] = target: T1, Polypeptide N-acetylgalactosaminyltransferase 2; test: Inhibition of ppGalNAcT2 in human HT-29 cells assessed as reduction in O-GalNAc glycans by measuring VVA lectin expression at 20 to 60 uM incubated for 48 hrs by Western blot analysis; assay type: cell-based
[21] = target: T2, Polypeptide N-acetylgalactosaminyltransferase 13 (Homo sapiens, UniProt Q8IUC8); test: Inhibition of catalytic activity of ppGalNAcT13 (unknown origin) using EA2 peptide as substrate incubated for 30 mins by HPLC-based enzyme assay
T2 sequence (Q8IUC8 whole entry): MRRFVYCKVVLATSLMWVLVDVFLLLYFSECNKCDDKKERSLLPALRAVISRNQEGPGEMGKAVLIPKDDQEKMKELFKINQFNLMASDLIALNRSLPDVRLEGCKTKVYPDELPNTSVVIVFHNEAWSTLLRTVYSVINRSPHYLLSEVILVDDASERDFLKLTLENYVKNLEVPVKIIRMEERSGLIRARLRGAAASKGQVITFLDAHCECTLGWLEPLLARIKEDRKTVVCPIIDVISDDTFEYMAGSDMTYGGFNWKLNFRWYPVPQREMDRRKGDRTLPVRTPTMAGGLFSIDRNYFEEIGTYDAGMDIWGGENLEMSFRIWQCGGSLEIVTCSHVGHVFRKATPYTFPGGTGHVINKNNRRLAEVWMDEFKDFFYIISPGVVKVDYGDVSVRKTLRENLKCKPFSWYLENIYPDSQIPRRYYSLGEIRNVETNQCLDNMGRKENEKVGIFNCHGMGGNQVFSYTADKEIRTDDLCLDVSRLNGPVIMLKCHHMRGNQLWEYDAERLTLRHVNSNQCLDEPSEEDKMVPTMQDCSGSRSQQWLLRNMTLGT

Cricetulus griseus [22] = organism: Cricetulus griseus; test: Inhibition of ppGalNAcT2 in Chinese hamster ldlD cells assessed as reduction in O-GalNAc glycosylation by measuring metabolic labelled-GalNAz signal at 40 uM incubated for 48 hrs by click chemistry assay; assay type: cell-based
[23] = target: T1, Polypeptide N-acetylgalactosaminyltransferase 2; test: Inhibition of catalytic activity of human recombinant FLAG-tagged ppGalNAcT2 expressed in HEK293T cells and using 5-FAM labelled-EA2 peptide as substrate incubated for 30 mins by HPLC-based enzyme assay
RKO [24] = test: Antimigratory activity in human RKO cells at 40 uM incubated for 48 hrs by crystal violet staining based method; assay type: functional, cell-based
HT-29 [25] = test: Effect on ppGalNAcT2 expression level in human HT-29 cells at 40 uM incubated for 48 hrs by Western blot analysis; assay type: ADME, cell-based; conditions: ht-29, 48 h
[26] = target: T1, Polypeptide N-acetylgalactosaminyltransferase 2; test: Inhibition of ppGalNAcT2 in human HCT116 cells assessed as reduction in O-GalNAc glycosylation by measuring VVA lectin expression at 40 uM incubated for 48 hrs by Western blot analysis; assay type: cell-based
HT-29 [27] = test: Antimigratory activity in human HT-29 cells at 40 uM incubated for 48 hrs by crystal violet staining based method; assay type: functional, cell-based
HT-29 [28] = test: Effect on ppGalNAcT15 expression level in human HT-29 cells at 40 uM incubated for 48 hrs by Q-PCR analysis; assay type: ADME, cell-based; conditions: ht-29, 48 h
HT-29 [29] = test: Effect on ppGalNAcT16 expression level in human HT-29 cells at 40 uM incubated for 48 hrs by Q-PCR analysis; assay type: ADME, cell-based; conditions: ht-29, 48 h
HT-29 [30] = test: Effect on ppGalNAcT11 expression level in human HT-29 cells at 40 uM incubated for 48 hrs by Q-PCR analysis; assay type: ADME, cell-based; conditions: ht-29, 48 h

O=c1oc2c(O)c(O)ccc2c2cc(O)c(O)cc12
Activity (HT-29 [1]): Non-Toxic | Activity (HT-29 [2]): Non-Toxic | Activity (HCT-116 [3]): Active | IC50 [4]: 460 nM | Activity (HCT-116 [5]): Non-Toxic | inhibition [6]: Active | Activity (HT-29 [7]): Non-Toxic | Activity (HT-29 [8]): Active | IC50 [9]: 3120 nM | Activity (HT-29 [10]): Non-Toxic | Activity (HT-29 [11]): Non-Toxic | Activity (HT-29 [12]): Non-Toxic | Activity (HT-29 [13]): Non-Toxic | koff [14]: 1.04 ×10⁻³ /s | Activity (HT-29 [15]): Non-Toxic | inhibition [16]: Active | Activity (HT-29 [17]): Non-Toxic | inhibition (Cricetulus griseus [18]): Dose-dependent effect | Activity (RKO [19]): Non-Toxic | inhibition [20]: Active | IC50 [21]: 13800 nM | inhibition (Cricetulus griseus [22]): Active | IC50 [23]: 760 nM | Activity (RKO [24]): Active | Activity (HT-29 [25]): Non-Toxic | inhibition [26]: Active | Activity (HT-29 [27]): Active | Activity (HT-29 [28]): Non-Toxic | Activity (HT-29 [29]): Non-Toxic | Activity (HT-29 [30]): Non-Toxic
